Test results as given in article PMC4335062, “Data-Driven Prediction and Design of bZIP Coiled-Coil Interactions” (PLoS Computational Biology, 2015).
Like-named read-outs stand apart in the source and are kept apart here. Where no end group is shown, it is not given here.

Columns and labels:
Assay in all cases: Direct-binding FRET assay
Parameters in all cases: made in house
[1] = molecular target: MAFG (Homo sapiens, UniProt O15525); conditions: read-out: Kd
Procedure: (§1) The direct binding assay was performed manually in 384-well plates and is similar to a previously described assay. Wells were filled with 20 μL of 1 mM TCEP-HCl. A 4 μM stock of acceptor protein was made fresh in 1 mM TCEP-HCl, and 20 μL was titrated in 2-fold dilutions over the wells. […] The direct-binding FRET data were fit as previously described. Briefly, the Kd of the designed peptide homodimer was experimentally determined and used with previously determined target homodimer Kd values to determine the heterodimer Kd. The homodimer Kd values used for the human bZIPs were from; experiments done by […] et al. used the same protein constructs for the human bZIP proteins, the same buffer conditions, and the same assay. The fitting used a system of ordinary differential equations to describe the concentrations of homo and heterodimers formed by the donor (D) and acceptor (A) as a function of the heterodimer Kd. MATLAB was used to simulate the binding experiment for different Kd values, and the value that gave the best agreement between simulation and experiment was assigned. A minimum 15% change in the donor fluorescence upon titrating the acceptor peptide from 0 to 1000 nM was required for a fit to be attempted. If this minimum was not met, the interaction was classified as “NS” for no signal change. […] For such curves, we removed the first five points and re-fit the data.

[2] = molecular target: JUN (Homo sapiens, UniProt P05412); conditions: mean or single, read-out: Kd
JUN, sequence (P05412 252-315 limits assumed): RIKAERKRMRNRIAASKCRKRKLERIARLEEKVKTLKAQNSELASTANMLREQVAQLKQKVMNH
Procedure: as §1

[3] = molecular target: ATF6B (Homo sapiens, UniProt Q99941); conditions: read-out: Kd
ATF6B, sequence (Q99941 325-388 limits assumed): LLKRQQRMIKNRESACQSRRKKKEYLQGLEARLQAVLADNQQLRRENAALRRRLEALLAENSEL
Procedure: as §1

[4] = molecular target: FOS (Homo sapiens, UniProt P01100); conditions: read-out: Kd
FOS, sequence (P01100 137-200 limits assumed): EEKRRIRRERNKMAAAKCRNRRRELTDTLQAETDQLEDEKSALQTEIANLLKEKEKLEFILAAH
Procedure: as §1

[5] = molecular target: MAFB (Homo sapiens, UniProt Q9Y5Q3); conditions: read-out: Kd
MAFB, sequence (Q9Y5Q3 238-301 limits assumed): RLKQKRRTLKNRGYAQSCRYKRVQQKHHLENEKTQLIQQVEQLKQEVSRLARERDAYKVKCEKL
Procedure: (§2) The direct binding assay was performed manually in 384-well plates and is similar to a previously described assay. Wells were filled with 20 μL of 1 mM TCEP-HCl. A 4 μM stock of acceptor protein was made fresh in 1 mM TCEP-HCl, and 20 μL was titrated in 2-fold dilutions over the wells. […] The direct-binding FRET data were fit as previously described. Briefly, the Kd of the designed peptide homodimer was experimentally determined and used with previously determined target homodimer Kd values to determine the heterodimer Kd. The homodimer Kd values used for the human bZIPs were from; experiments done by […] et al. used the same protein constructs for the human bZIP proteins, the same buffer conditions, and the same assay. The fitting used a system of ordinary differential equations to describe the concentrations of homo and heterodimers formed by the donor (D) and acceptor (A) as a function of the heterodimer Kd. MATLAB was used to simulate the binding experiment for different Kd values, and the value that gave the best agreement between simulation and experiment was assigned. A minimum 15% change in the donor fluorescence upon titrating the acceptor peptide from 0 to 1000 nM was required for a fit to be attempted. If this minimum was not met, the interaction was classified as “NS” for no signal change. […] These interactions were marked “AS” to indicate anomalous signal. We attributed this to interactions between the peptides, the dyes and the walls of the assay plates at low concentrations. These curves could not be fit, given their unusual shapes at low concentrations of acceptor. For such curves, we removed the first five points and re-fit the data. […] One example of this is increasing concentrations of acceptor causing an increase in donor fluorescence.

[6] = molecular target: NFE2L1 (Homo sapiens, UniProt Q14494); conditions: read-out: Kd
NFE2L1, sequence (Q14494 654-717 limits assumed): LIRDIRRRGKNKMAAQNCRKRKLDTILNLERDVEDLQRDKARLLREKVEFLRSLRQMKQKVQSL
Procedure: as §2

[7] = molecular target: ATF6 (Homo sapiens, UniProt P18850); conditions: read-out: Kd
ATF6, sequence (P18850 306-369 limits assumed): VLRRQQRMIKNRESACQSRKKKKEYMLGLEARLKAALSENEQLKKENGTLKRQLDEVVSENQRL
Procedure: as §2

[8] = molecular target: MAF (Homo sapiens, UniProt O75444); conditions: read-out: Kd
MAF, sequence (O75444 288-351 limits assumed): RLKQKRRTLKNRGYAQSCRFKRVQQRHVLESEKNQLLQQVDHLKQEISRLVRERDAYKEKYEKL
Procedure: as §2

[9] = molecular target: BACH1 (Homo sapiens, UniProt O14867); conditions: read-out: Kd
Procedure: as §2

[10] = molecular target: BACH2 (Homo sapiens, UniProt Q9BYV9); conditions: read-out: Kd
BACH2, sequence (Q9BYV9 646-709 limits assumed): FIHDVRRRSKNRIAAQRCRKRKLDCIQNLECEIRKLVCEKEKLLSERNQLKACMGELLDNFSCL
Procedure: as §2

[11] = 4°C, C-terminal fluorescein design as donor, TAMRA target titrated
[12] = 4°C, C-terminal rhodamine design, mean or single
[13] = 4°C, N-terminal rhodamine design, mean or single
[14] = 23°C, C-terminal fluorescein design as donor, TAMRA target titrated
[15] = 23°C, C-terminal rhodamine design, mean or single
[16] = 23°C, N-terminal rhodamine design, mean or single
[17] = 37°C, C-terminal fluorescein design as donor, TAMRA target titrated
[18] = 37°C, C-terminal rhodamine design, mean or single
[19] = 37°C, N-terminal rhodamine design, mean or single
[20] = 37°C, C-terminal rhodamine design, repeat 1
[21] = 37°C, C-terminal rhodamine design, repeat 2

MAFG, sequence (O15525 51-114 limits assumed): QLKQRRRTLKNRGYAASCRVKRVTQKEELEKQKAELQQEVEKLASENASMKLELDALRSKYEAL

## EREAQLENRVAHLKEKNQELKAQNLHLKEALSEAQNRNQELKNDA [XBP1-d1]
[1]; [11]
  Kd: > 1000 nM
[1]; [12]
  Kd: > 1000 nM
[1]; [13]
  Kd: > 1000 nM
[1]; [14]
  Kd: > 1000 nM
[1]; [15]
  Kd: > 1000 nM
[1]; [16]
  Kd: > 1000 nM
[1]; [17]
  Kd: > 1000 nM
[1]; [18]
  Kd: > 1000 nM
[1]; [19]
  Kd: > 1000 nM
[2]; 4°C, C-terminal rhodamine design
  Kd: > 1000 nM
[2]; 4°C, N-terminal rhodamine design
  Kd: > 1000 nM
[2]; 23°C, C-terminal rhodamine design
  Kd: > 1000 nM
[2]; 23°C, N-terminal rhodamine design
  Kd: > 1000 nM
[2]; 37°C, C-terminal rhodamine design
  Kd: > 1000 nM
[2]; 37°C, N-terminal rhodamine design
  Kd: > 1000 nM
[3]; [11]
  Kd: > 1000 nM
[3]; 4°C, C-terminal rhodamine design, repeat 1
  Kd: 200 to 1000 nM
[3]; 4°C, C-terminal rhodamine design, repeat 2
  Kd: > 1000 nM
[3]; [14]
  Kd: > 1000 nM
[3]; [16]
  Kd: > 1000 nM
[3]; [17]
  Kd: > 1000 nM
[3]; [18]
  Kd: > 1000 nM
[3]; [20]
  Kd: > 1000 nM
[3]; [21]
  Kd: > 1000 nM
[3]; [19]
  Kd: > 1000 nM
[4]; [11]
  Kd: > 1000 nM
[4]; [12]
  Kd: > 1000 nM
[4]; [13]
  Kd: > 1000 nM
[4]; [14]
  Kd: > 1000 nM
[4]; [15]
  Kd: > 1000 nM
[4]; [16]
  Kd: > 1000 nM
[4]; [17]
  Kd: > 1000 nM
[4]; [18]
  Kd: > 1000 nM
[4]; [19]
  Kd: > 1000 nM
[5]; [11]
  Kd: > 1000 nM
[5]; [12]
  Kd: > 5000 nM
[5]; [13]
  Kd: > 1000 nM
[5]; [14]
  Kd: > 1000 nM
[5]; [15]
  Kd: > 5000 nM
[5]; [16]
  Kd: > 1000 nM
[5]; [17]
  Kd: > 1000 nM
[5]; [18]
  Kd: > 5000 nM
[5]; [19]
  Kd: > 1000 nM
[6]; [11]
  Kd: > 1000 nM
[6]; [12]
  Kd: > 1000 nM
[6]; [13]
  Kd: > 1000 nM
[6]; [14]
  Kd: > 1000 nM
[6]; [15]
  Kd: > 1000 nM
[6]; [16]
  Kd: > 1000 nM
[6]; [17]
  Kd: > 1000 nM
[6]; [18]
  Kd: > 1000 nM
[6]; [19]
  Kd: > 1000 nM
[7]; [11]
  Kd: > 5000 nM
[7]; [14]
  Kd: > 1000 nM
[7]; [16]
  Kd: > 1000 nM
[7]; [17]
  Kd: > 1000 nM
[7]; [18]
  Kd: > 5000 nM
[7]; [20]
  Kd: > 5000 nM
[7]; [21]
  Kd: > 5000 nM
[7]; 37°C, C-terminal rhodamine design, repeat 3
  Kd: > 5000 nM
[7]; [19]
  Kd: > 1000 nM
[8]; [11]
  Kd: > 1000 nM
[8]; [12]
  Kd: > 1000 nM
[8]; [13]
  Kd: > 1000 nM
[8]; [14]
  Kd: > 1000 nM
[8]; [15]
  Kd: > 1000 nM
[8]; [16]
  Kd: > 1000 nM
[8]; [17]
  Kd: > 1000 nM
[8]; [18]
  Kd: > 1000 nM
[8]; [19]
  Kd: > 1000 nM
[9]; [11]
  Kd: > 1000 nM
[9]; [12]
  Kd: > 1000 nM
[9]; [13]
  Kd: > 5000 nM
[9]; [14]
  Kd: > 1000 nM
[9]; [15]
  Kd: > 1000 nM
[9]; [16]
  Kd: > 1000 nM
[9]; [17]
  Kd: > 1000 nM
[9]; [18]
  Kd: > 1000 nM
[9]; [19]
  Kd: > 1000 nM
[10]; [11]
  Kd: > 1000 nM
[10]; [12]
  Kd: > 1000 nM
[10]; [13]
  Kd: > 1000 nM
[10]; [14]
  Kd: > 1000 nM
[10]; [15]
  Kd: > 1000 nM
[10]; [16]
  Kd: > 1000 nM
[10]; [17]
  Kd: > 1000 nM
[10]; [18]
  Kd: > 1000 nM
[10]; [19]
  Kd: > 1000 nM
